The values that follow come from paper PMC10721898, “C5 methylation confers accessibility, stability and selectivity to picrotoxinin” (Nature Communications, 2023).

SMILES strings stand for the structures. Several values for one entry are separate records, joined by “and”; a condition that tells them apart may be missing. Identical values can stand only once.

Data set [1] in a line: Stability in human plasma. It counts as in vitro ADME. Conditions: for T½ in human plasma / half-life at 2 µM: 37 °C, incubation to 120 min, extrapolated half-life, n = 2; for half-life at 2 µM / remaining at 0 h, 2 µM / remaining at 10 min, 2 µM / remaining at 0.5 h, 2 µM / remaining at 1 h, 2 µM / remaining at 2 h, 2 µM: both sexes, human, plasma; for half-life at 2 µM: read-out: T½ in human plasma; for remaining at 0 h, 2 µM: 0 min; for remaining at 0.5 h, 2 µM: 30 min; for remaining at 1 h, 2 µM: 60 min; for remaining at 2 h, 2 µM: 120 min. The source says:
We investigated the relative rates of esterase-mediated hydrolysis[17] observed in mouse and human plasma, to evaluate potential for future translational applications. […] Due to the high stability of the C15 lactone, identified above, combined with the kinetic lability and reversible opening of the C11 lactone identified previously, enzymatic degradation in serum likely reflects a combination of reversible C11 hydrolysis[38] (unaffected by C5 methylation) and irreversible C15 hydrolysis (obstructed by C5 methylation)[17]. No prior studies have identified PXN modifications that enhance metabolic stability, partly due to the difficulty of synthetic modification and partly due to the prior incorrect assignment of the site of kinetic hydrolysis (C11 vs. C15)[38].
Test compound working solution: 5 μL of tested compound stock solution (10 mM in DMSO) were diluted with 495 μL of DMSO (concentration: 100 μM, 100% DMSO). Propantheline bromide working solution: 5 μL of propantheline bromide stock solution (10 mM in DMSO) were diluted with 495 μL of H2O (concentration: 100 […]
Supplementary Table 6. Test system.
Species/ Matrix Minimum No. of Anticoagulant Vendor
CD-1 Mouse 20 Male EDTA-K2 Beijing Vital River Laboratory
Human Plasma 3 Male & 3 Female EDTA-K2 BioreclamationIVT
The pooled frozen plasma was thawed in a water bath at 37 °C prior to experiment. Plasma was centrifuged at 1968 g (4000 rpm) for 5 min and the clots were removed. Using an Apricot automation work station, 98 μL/well of blank plasma were added to all 96-well reaction plates. (Blank, T0, T10, T30, T60 and T120) . An Apricot automation workstation was used to add 2 μL/well of working solution (100 μM) to all reaction plates except Blank. (T0, T10, T30, T60 and T120) . All reaction plates containing mix tures of compound a nd plasma were incubated at 37 °C in water bath. The reaction plates were incubated at 37 °C, and timer was started. At the end of incubation, 400 μL of stock solution was added (200 ng/mL tolbutamide and 200 ng/mL labetalol in MeCN) to precipitate protein and mixed thoroughly. Each plate was sealed and shaken for 20 minutes, then centrifuged at 1968 g (4000 rpm) and 4 °C for 20 minutes. After centrifugation, an Apricot automation workstation was used to transfer 150 μL supernatant. Each bioanalysis plate was sealed and shaken for 10 minutes prior to LC -MS/MS […]
The % remaining of test compound after incubation in plasma was calculated using following equation:
% Remaining= 100 x (PAR at appointed incubation time / PAR at T0 time) where PAR is the peak area ratio of analyte versus internal standard (IS) The appointed incubation time points are T0 (0 min), Tn (n=0, 10, 30, 60, 120 min)
Supplementary Table 7. %Remaining of test compound in two plasmas.
Compound Time point (min) % Remaining T½ (min)

For the next data set, the system named is rat GABAA ion channel. The data set can be described thus: Non-selective rat GABAA ion channel [3H]TBOB binding (antagonist radioligand) assay, rat cerebral cortex. Conditions: for IC50: [3H]TBOB displacement, n = 1. As for the experimental part:
The structurally privileged 5-methyl series was assayed for binding to both GABAA receptors (rat cortex membrane preparations) and RDL (expressed in Xenopus oocytes) and compared directly to the parent PXN (C5-H) series. The parallel series of PXN and 5MePXN analogs allowed us to interrogate the effect of the synthetically-enabling and stabilizing C5 methyl. […]
4. Rat GABAA receptors binding assay
Non-selective rat GABAA ion channel [3H] TBOB binding (Antagonist Radioligand) assay was conducted by Eurofins Pharma Discovery Service of Eurofins Cerep, France.
Compound binding was calculated as a % inhibition of the binding of the radioactive ly labeled ligand [3H] TBOB (t‐[3H]Butylbicycloorthobenzoate) for rat GABAA ion channels.9 A 20.0 mM stock solution was prepared in DMSO from each test compound to evaluate radioligand displacement of [3H] TBOB from rat cerebral cortex GABAA receptors at different concentrations.
The results are expressed as a percent of control specific binding measured specific binding*100 […]
and as a percent inhibition of control specific binding
100 − (measured specific binding*100) […]
obtained in the presence of the test compounds.
The IC50 values (concentration causing a half -maximal inhibition of control specific binding) and Hill coefficients (nH) were determined by non -linear regression analysis of th e competition curves generated with mean replicate values using Hill equation curve fitting […]
where Y = specific binding, A = left asymptote of the curve, D = right asymptote of the curve , C = compound concentration, C 50 = IC50, and nH = slope factor. This analysis was performed using software developed at Cerep (Hill software) and validated by comparison with data generated by th e commercial software SigmaPlot® 4.0 for Windows ® (© 1997 by SPSS Inc.).
The inhibition constants (K i) were calculated using the Cheng Prusoff equation where L = concentration of radioligand in the assay, and KD = affinity of the radioligand for the recept or. A scatchard plot is used to determine the K D.
Supplementary Table 8. IC50 values of test compound
Compound IC50 (µM) Compound IC50 (µΜ)

Take `C=C(C)C1C2OC(=O)C1(C)C1(O)CC3OC34C(=O)OC2C41C` (stereo not drawn) [5MePXN, 5-methylpicrotoxinin]: the “increase of extrapolated half-life by C5 methylation, human plasma” value in data set [1] (5MePXN vs. PXN) is recorded as 2.7 X. In data set [1], the “T½ in human plasma” value was 4.82 h and > 4.82 h; the half-life at 2 µM was 4.82 h; the share remaining at 0 h, 2 µM is 100%; the share remaining at 10 min, 2 µM is 103%. Moreover, in data set [1], the amount remaining at 0.5 h, 2 µM was determined as 93.7%; the share remaining at 1 h, 2 µM is 84.5%; the share remaining at 2 h, 2 µM was 77.7%. In addition, in the data set on rat GABAA ion channel ([3H]TBOB binding), the “loss in potency from PXN” value came to 10 fold. Also, on rat GABAA ion channel (Supplementary Table 8 (5MePXN series)), the 50% inhibitory concentration (IC50) is 1.8 µM.
In the case of `C=C(C)[C@@H]1[C@H]2OC(=O)[C@@H]1[C@]1(O)C[C@H]3O[C@]34C(=O)O[C@H]2[C@]14C` [PXN, picrotoxinin], in data set [1], the “T½ in human plasma” value was 1.8 h; the half-life at 2 µM was 1.8 h; the share remaining at 0 h, 2 µM is 100%; the fraction remaining at 10 min, 2 µM amounted to 130%. In data set [1], the share remaining at 0.5 h, 2 µM worked out at 114%; the amount remaining at 1 h, 2 µM was found to be 72.9%; the share remaining at 2 h, 2 µM was found to be 55.8%. On rat GABAA ion channel (Supplementary Table 8 (PXN series)), the IC50 amounted to 0.21 µM.

Usually IC50 stands for the concentration needed to halve the response being measured.
